Data published in patent US10150729B2, “Tranilast compositions and cocrystals” (NUFORMIX LIMITED, priority 2012, dated 2018).
Like-named read-outs stand apart in the source and are kept apart here.

Legend:
[1] = Solution photostability study (UV irradiation, HPLC); details: dissolved in DMSO/MeOH/water; UV light; 24 hrs
Procedure: (§1) This study explored the photostability of the 1:1 tranilast nicotinamide cocrystal, the 1:1 tranilast saccharin cocrystal, the 1:1 tranilast gentisic acid cocrystal, the 1:1 salicylic acid cocrystal, the 1:1 tranilast urea cocrystal, the 1:1 tranilast 4-aminobenzoic acid cocrystal and the 1:1 tranilast 2,4-dihydroxybenzoic acid cocrystal once dissolved in solution and to compare these with the solution photostability of pure tranilast. A 1 mg sample of crystalline tranilast and the seven cocrystal forms were each weighed into a clear glass vial. Each sample was dissolved in a mixture of DMSO (200 μl), MeOH (600 μl) and water (600 μl). The vials were placed into a Vindon Scientific Photostability cabinet and irradiated with UV light (average Klux=18.2 (18.2 Lux/hour), average UV values=2.55 watts/minute, temperature=31.0-32.0° C.). The percentage of tranilast remaining in each sample, that had not undergone degradation into the cis-isomer, dimer or any other degradation product, was determined after 24 hours using HPLC.

[2] = Solid-state photostability study (UV irradiation, HPLC); details: UV light; for photostability in the solid-state: compared to pure crystalline tranilast
Procedure: A study was, therefore, carried out to determine the solid-state photostability of the 1:1 tranilast nicotinamide cocrystal, the 1:1 tranilast saccharin cocrystal, the 1:1 tranilast gentisic acid cocrystal, the 1:1 salicylic acid cocrystal, the 1:1 tranilast urea cocrystal, the 1:1 tranilast 4-aminobenzoic acid cocrystal and the 1:1 tranilast 2,4-dihydroxybenzoic acid cocrystal and to compare this with the solid state photostability of pure crystalline tranilast. A 1-2 mg sample of crystalline tranilast and the seven cocrystal forms were each weighed and spread over the bottom surface of a clear glass vial. The vials were placed into a Vindon Scientific Photostability cabinet and irradiated with UV light (average Klux=18.2 (18.2 Lux/hour), average UV values=2.55 watts/minute, temperature=31.0-32.0° C.). The percentage of tranilast remaining in each sample, that had not undergone degradation into the cis-isomer, dimer or any other degradation product, was determined at 3, 24 and 48 hours using HPLC.

[3] = buffer, 24 h
Procedure: as §1

[4] = Dissolution study in purified water containing 2% SDS; format: physicochemical
Procedure: For poorly soluble drugs, such as tranilast, the rate of dissolution of the drug form used can have an impact on the overall absorption and thus bioavailability of the drug, especially for example, in the case of oral solid dosage or inhalation delivery methods. […] The dissolution experiment was carried out for tranilast and each of the cocrystal forms at a concentration equivalent to 0.4 mg tranilast/ml in purified water containing 2% SDS. This study compared the dissolution rates of the cocrystals versus pure crystalline tranilast, because of the extremely low solubility of crystalline tranilast in aqueous media, the surfactant sodium dodecyl sulfate (SDS) was added to the dissolution media to allow easier analytical detection. Samples were collected and analysed at 1, 5, 10 and 30 minute time points. The samples were analysed by HPLC using the method described in Table 10. FIG. 32 illustrates the dissolution profiles from a single dataset for each of the tranilast cocrystals alongside crystalline tranilast over the 30 minute time period in the aqueous 2% SDS solution. The dissolution data is corrected within error limits of the analytical method described (estimated at ±10%). […] Most of the cocrystals reach almost their maximum dissolution within the first minute.

[5] = Physical stability study of the cocrystal under accelerated conditions (40° C./75% RH), examined by XRPD; format: physicochemical
Procedure: X-Ray Powder Diffraction patterns at the required time points were collected on a PANalytical diffractometer using Cu Kα radiation (45 kV, 40 mA), θ-θ goniometer, focusing mirror, divergence slit (½″), soller slits at both incident and divergent beam (4 mm) and a PIXcel detector. The software used for data collection was X'Pert Data Collector, version 2.2f and the data was presented using X'Pert Data Viewer, version 1.2d. Instrument verification was performed using a silicon and benzoic acid standard, performed with the same batch program as listed below for sample analysis. Samples were run under ambient conditions and were analysed by transmission foil XRPD, using the powder as received. Approximately 2-5 mg of the sample was mounted on a 96 position sample plate supported on a polyimide (Kapton, 12.7 μm thickness) film. Plate height (Z) was set to 9 mm. Data was collected in the range 3-40° 2θ with a continuous scan (speed of 0.2° 2θ/s).
A stability study was carried out to examine the physical stability of the 1:1 tranilast nicotinamide cocrystal with respect to dissociation into its starting components over time under accelerated conditions. Approximately 1-2 mg of the 1:1 tranilast nicotinamide cocrystal was placed in seven clear glass vials. The glass vials were loosely sealed with plastic screw caps so as to provide a barrier to solid transfer but to still allow moisture equilibration with the outer environment. The vial head space above the sample was estimated to be >95% of the total vial volume. All seven samples were then placed on a tray and stored within a stability cabinet set at 40° C./75% RH. At every time point examined the XRPD pattern obtained was characteristic of the 1:1 tranilast nicotinamide cocrystal with no evidence of either of the starting materials, or any new peaks to indicate conversion to a different crystalline form. FIG. 7 illustrates the XRPD patterns obtained at the time points 0, three months and six months. FIG. 7 is an overlay of the XRPD patterns of the 1:1 tranilast nicotinamide cocrystal at those time points during a 6 month accelerated stability study at 40° C./75% RH.

SMILES	percentage of tranilast remaining [1] [%]	percentage of tranilast remaining ([2]; 3 hrs) [%]	percentage of tranilast remaining ([2]; 24 hrs) [%]	percentage of tranilast remaining ([2]; 48 hrs) [%]	photostability in the solid-state [2]	other results
COc1ccc(/C=C/C(=O)Nc2ccccc2C(=O)O)cc1OC.Nc1ccc(C(=O)O)cc1	76.2	99.8	98.2	99.7	comparable photostability	
COc1ccc(/C=C/C(=O)Nc2ccccc2C(=O)O)cc1OC.O=C(O)c1cc(O)ccc1O [1:1 Tranilast Gentisic Acid Cocrystal]						percentage of tranilast remaining (3 h): 99.6%; percentage of tranilast remaining (24 h): 99.8%; percentage of tranilast remaining (48 h): 99.9%; percentage of tranilast remaining [3]: 76.3%
COc1ccc(/C=C/C(=O)Nc2ccccc2C(=O)O)cc1OC.NC(=O)c1cccnc1 [1:1 Tranilast Nicotinamide Cocrystal]	80.2	99.3	99.9	99.9	comparable photostability	dissolution reached ([4]; within 1 minute): almost complete dissolution; XRPD Characterization ([5]; 1 month): cocrystal; XRPD Characterization ([5]; 1 week): cocrystal; XRPD Characterization ([5]; 2 months): cocrystal; XRPD Characterization ([5]; 2 week): cocrystal; XRPD Characterization ([5]; 3 months): cocrystal; XRPD Characterization ([5]; 3 week): cocrystal; XRPD Characterization ([5]; 6 months): cocrystal; physical stability with respect to dissociation or conversion to another crystalline form ([5]; six month period): stable; XRPD Characterization ([5]; time point 0): cocrystal
COc1ccc(/C=C/C(=O)Nc2ccccc2C(=O)O)cc1OC.O=C1NS(=O)(=O)c2ccccc21 [1:1 Tranilast Saccharin Cocrystal]	71.0	99.8	99.6	99.1	comparable photostability	
COc1ccc(/C=C/C(=O)Nc2ccccc2C(=O)O)cc1OC.O=C(O)c1ccccc1O [1:1 Tranilast Salicyclic Acid Cocrystal]	77.5	99.8	99.6	98.7	comparable photostability	
COc1ccc(/C=C/C(=O)Nc2ccccc2C(=O)O)cc1OC.NC(N)=O [1:1 Tranilast Urea Cocrystal]	76.4	99.8	99.6	99.9	comparable photostability	
COc1ccc(/C=C/C(=O)Nc2ccccc2C(=O)O)cc1OC [Crystalline Tranilast, 2-[[3-(3,4-dimethoxyphenyl)-1-oxo-2-propenyl]amino] benzoic acid, reference compound]	66.2	98.9	99.8	99.7		dissolved ([4]; after 1 minute, 0.4 mg tranilast/ml): about 5%
